From PMC7340027 (Cell Reports, 2020)
Like-named read-outs stand apart in the source and are kept apart here. Marks after values point to notes of the source that are not given here.

What was measured:
[1] = test system: SARS-CoV-2; test: microbe, parasite or virus in culture; assay type: cell-based, SARS-CoV-2 clinical isolate 2019-nCoV/USA-WA1/2020
[2] = test system: Vero E6 cells
[3] = test system: Calu3 2B4 cells; conditions: human
[4] = test system: SARS-CoV-2; test: microbe, parasite or virus in culture; assay type: cell-based, SARS-CoV-2 clinical isolate 2019-nCoV/USA-WA1/2020; remark: listed apart in the source
[5] = test system: Calu3 2B4 cells
[6] = test system: SARS-CoV-2; assay type: cell-based, SARS-CoV-2 clinical isolate 2019-nCoV/USA-WA1/2020
[7] = test system: Vero E6 cells; remark: listed apart in the source
[8] = test system: HAE cultures; conditions: female, human
[9] = test system: HAE cultures
[10] = Severe acute respiratory syndrome coronavirus 2, Calu-3 2B4, read-out: EC90 (infectious viral titer)
[11] = Severe acute respiratory syndrome coronavirus 2, Calu-3 2B4, read-out: EC90 (qRT-PCR)
[12] = Severe acute respiratory syndrome coronavirus 2, Calu-3 2B4, read-out: Genome copy EC50
[13] = Severe acute respiratory syndrome coronavirus 2, Calu-3 2B4, read-out: Plaque assay EC50

SMILES	EC90 ([1]; Severe acute respiratory syndrome coronavirus 2, Vero C1008, read-out: EC90 (infectious viral titer))	EC90 ([1]; Severe acute respiratory syndrome coronavirus 2, Vero C1008, read-out: EC90 (qRT-PCR))	cytotoxicity [2]	RDV-TP at 24 h [3]	EC90 [4, 10]	EC90 [4, 11]	EC50 [4, 12]	EC50 [4, 13]	cytotoxicity [5]	inhibition of infectious virus production [6]	RDV-TP at 24 h ([7]; African green monkey)	RDV-TP levels in Vero E6 cells lower than in HAE cultures ([7]; African green monkey)	RDV-TP levels in Vero E6 cells lower than in Calu3 2B4 ([7]; African green monkey (Vero E6) and human (Calu3 2B4))	difference in RDV-TP between the two HAE donor cultures [8]	cytotoxicity [9]
N#C[C@@]1(c2ccc3c(N)ncnn23)O[C@H](CO)[C@@H](O)[C@H]1O [GS-441524]	710 nM	800 nM	No significant cytotoxicity	0.85 ± 0.16 ^e pmol/million cells	1340 nM	1370 nM	1090 nM	620 nM	No significant cytotoxicity	–	–	–	–	–	–
CCC(CC)COC(=O)[C@H](C)N[P@](=O)(OC[C@H]1O[C@@](C#N)(c2ccc3c(N)ncnn23)[C@H](O)[C@@H]1O)Oc1ccccc1 [RDV, Remdesivir]	–	–	No significant cytotoxicity	–	2480 nM	1280 nM	600 nM	280 nM	No significant cytotoxicity	more than 100 fold	0.50 ± 0.15 ^d pmol/million cells	~20 fold	approximately 4 fold	less than 3 fold	did not cause cytotoxicity
